US11167007B2, “FOXM1 modulators and uses thereof” (City of Hope, priority 2016, dated 2021)
“Also recorded” adds a separate entry of the source.

Assays:
[1] = test system: AR; test: Androgen-responsive luciferase reporter assay in C2C12 cells; format: cell-based, murine; settings: treated overnight, FIG. 2A
From the text: Luciferase Reporter Assay. Cells were transfected using Lipofectamine Plus (Invitrogen) with a normalization plasmid (pRL-SV40, Promega) and an androgen responsive plasmid (MMTV-luciferase or PSA-luciferase) as described in Jones et al, ACS Chem Biol, 3(7):412-8 (2008), and, where indicated, with an shRNA plasmid targeting FOXM1 (adapted for mouse FOXM1 sequence targeting) a scrambled control shRNA plasmid, or ARQ24 or ARQ65 plasmids. Christensen et al, PLoS One, 8(1):e54556 (2013). The following day, cells and drugs were distributed to 96-well plates. 24 hours later, luciferase activity was assessed by a dual luciferase assay kit (Promega) on the Tecan plate reader. Samples were run in quadruplicates and a Student's t test was performed to determine significance, where p<0.05 was considered significant.
In order to identify potential cell-type selective AR modulators, the FRET-based assay of AR conformation change was utilized. AR signaling is a complex process involving many steps in addition to ligand binding. One crucial step is the ligand-induced conformational change of AR, which brings the carboxy (C)- and amino (N)-termini of the receptor together. Full length AR with cyan fluorescent protein (CFP) or yellow fluorescent protein (YFP) fused to either end (CARY) produces a FRET signal upon AR conformation change (FIG. 1A). This produces an accurate and quantifiable read-out of AR activity. Jones et al, ACS Chem Biol, 3(7):412-8 (2008). Because the interest was in the potential of neuron selective AR inhibitors for treatment of SBMA, the initial screen was carried out in CARY-transfected GT1-7 cells, which are a mouse model of hypothalamic neurons. Liposits et al, Endocrinology, 129(3):1575-83 (1991). Cells were plated in 96 wells and treated with library compounds 24 hours prior to accessing conformational changes by FRET. […] Candidate hits were then further evaluated by dose response. […] In addition to FRET, AR transcriptional activity was also assessed in several cell lines by transfecting cells with a luciferase reporter driven by the human PSA promoter. […]

[2] = test system: AR; test: Androgen-responsive luciferase reporter assay in GT1-7 cells; format: cell-based, murine; settings: for inhibition of AR transcriptional activity (luciferase): GT1-7 cells, treated overnight, FIG. 2A; for Fold Difference: GT1-7 luciferase
Experimental: Luciferase Reporter Assay. […] The following day, cells and drugs were distributed to 96-well plates. 24 hours later, luciferase activity was assessed by a dual luciferase assay kit (Promega) on the Tecan plate reader. Samples were run in quadruplicates and a Student's t test was performed to determine significance, where p<0.05 was considered significant.
In order to identify potential cell-type selective AR modulators, the FRET-based assay of AR conformation change was utilized. AR signaling is a complex process involving many steps in addition to ligand binding. One crucial step is the ligand-induced conformational change of AR, which brings the carboxy (C)- and amino (N)-termini of the receptor together. Full length AR with cyan fluorescent protein (CFP) or yellow fluorescent protein (YFP) fused to either end (CARY) produces a FRET signal upon AR conformation change (FIG. 1A). This produces an accurate and quantifiable read-out of AR activity. […] Cells were plated in 96 wells and treated with library compounds 24 hours prior to accessing conformational changes by FRET. […] Candidate hits were then further evaluated by dose response. […] In addition to FRET, AR transcriptional activity was also assessed in several cell lines by transfecting cells with a luciferase reporter driven by the human PSA promoter.

[3] = Pilot pharmacokinetic study, plasma and spinal fluid by LC-MS/MS; format: in vivo, rat
Experimental: Animals and Drugs. This study was carried out in strict accordance with the recommendations in the Guide for the Care and Use of Laboratory Animals of the National Institutes of Health. All experiments were performed under the IUCAC approval of City of Hope. Animals were purchased from Jackson Laboratory (Bar Harbor, Main). For the pilot pharmacokinetic experiment, nine male Sprague Dawley rats (n=3) were administered 1, 10, or 100 mg/kg intraperitoneal injections thrice per week for four weeks. One hour following the final dose, blood and spinal fluid were collected and analyzed by mass spectrometry. For the efficacy experiment, rats were divided into 3 groups (n=7) as follows: intact, castrated, and thiostrepton. Thiostrepton was dissolved in 20% DMSO and 80% PEG400 (Sigma Aldrich) and administered at a concentration of 50 mg/kg per day via an IP osmotic pump implant (Alzet). Following a treatment period of 7 days, rats were euthanized and organs harvested, weighed and processed for quantitative RT-PCR.
LC-MS/MS methods. Dried samples were resuspended in tetrahydrofuran spiked with 5 pg/μl reserpine, which was used as an instrument response control. Resuspended samples were separated with an Agilent 1290 UHPLC system (Agilent Technologies, Santa Clara, Calif.) and a Waters Acquity CSH C18 column (Waters, Millford, Mass.) using a linear gradient from 95% buffer A (0.1% formic acid in 60% water/40% acetonitrile) to 100% buffer B (0.1% formic acid in 90% isopropanol/10% acetonitrile) over 2.5 minutes at 380 μL/minute. The UHPLC column eluent was sprayed into an Agilent 6490 triple quadrupole mass spectrometer equipped with a JetStream source (Agilent Technologies). Thiostrepton was detected by monitoring fragments from the doubly charged ion (m/z 832.9) at m/z 1247.4 and 1230.3. Data was analyzed using Agilent MassHunter quantitative analysis software.
A pilot pharmacokinetic study in rats was conducted to achieve desired dosing and to determine if thiostrepton crosses the blood brain barrier. Rats (n=3/group) received low (1 mg/kg), medium (10 mg/kg), or high (100 mg/kg) doses of thiostepton by intraperitoneal (IP) injection, three times a week for four weeks. One hour after the final dose, animals were euthanized and blood and spinal fluid was collected and analyzed by LC-MS/MS (FIG. 5A).

Structure (SMILES) | inhibition of AR transcriptional activity (luciferase) [1] | inhibition of AR transcriptional activity (luciferase) [2] | plasma levels ([3]; rats, 1, 10, 100 mg/kg IP three times a week for four weeks, one hour after final dose) | spinal fluid level relative to plasma ([3]; rats, IP, one hour after final dose) | spinal fluid concentration relative to IC50 in luciferase assay ([3]; rats, high dose) | levels of drug in the spinal fluid ([3]; rats, high dose (100 mg/kg) IP, one hour after final dose) | Fold Difference ([2]; DHT - 100 nM thiostrepton, Control shRNA) | Fold Difference ([2]; DHT - 100 nM thiostrepton, FOXM1 shRNA) | Fold Difference ([2]; DHT-10 nM thiostrepton, Control shRNA) | Fold Difference ([2]; DHT-10 nM thiostrepton, FOXM1 shRNA) | potency of thiostrepton on AR activity after decreasing FOXM1 expression ([2]; FOXM1 shRNA vs control, GT1-7, FIG. 3B)
C=C(NC(=O)C(=C)NC(=O)c1csc(C2=N[C@@H]3c4csc(n4)[C@H]4NC(=O)c5csc(n5)[C@H]([C@](C)(O)[C@@H](C)O)NC(=O)[C@H]5CSC(=N5)/C(=C/C)NC(=O)[C@H]([C@@H](C)O)NC(=O)c5csc(n5)[C@]3(CC2)NC(=O)[C@H](C)NC(=O)C(=C)NC(=O)C(=C)NC(=O)[C@H](C(C)C)N[C@@H]2C=Cc3c([C@H](C)O)cc(nc3[C@H]2O)C(=O)O[C@@H]4C)n1)C(N)=O [NSC285116, siomycin A] | not C2C12 cells | selectively inhibit AR activity | – | – | – | – | – | – | – | – | –
C=C(NC(=O)C(=C)NC(=O)c1csc(C2=N[C@@H]3c4csc(n4)[C@H]4NC(=O)c5csc(n5)[C@H]([C@](C)(O)[C@@H](C)O)NC(=O)[C@H]5CSC(=N5)/C(=C/C)NC(=O)[C@H]([C@@H](C)O)NC(=O)c5csc(n5)[C@]3(CC2)NC(=O)[C@H](C)NC(=O)C(=C)NC(=O)[C@H](C)NC(=O)[C@H]([C@@H](C)CC)N[C@@H]2C=Cc3c([C@H](C)O)cc(nc3[C@H]2O)C(=O)O[C@@H]4C)n1)C(N)=O [thiostrepton] | not C2C12 cells | most potent; also recorded: nanomolar potency; also recorded: selectively inhibit AR activity | dose-dependent increase | much lower levels than the plasma | above its IC50 | measurable levels | 2.04 | 1.62 | 1.54 | 1.34 | diminished the potency
